In patent US8623820B2, “FGF-9 and its use relating to blood vessels” (University of Western Ontario, priority 2008, dated 2014):

Key:
Sonic Hedgehog signaling = test: Matrigel plug with cyclopamine, CD31 / SM α-actin immunostaining; format: in vivo, mice; conditions: FGF-2+FGF-9 plugs with 500 nM cyclopamine
Experimental: FIG. 15A. RT-PCR of human aortic SMCs stimulated with increasing concentrations of recombinant FGF-9 for 24 h. 15B, RT-PCR of human aortic SMCs overexpressing cDNA encoding GFP or FGF-9. 15C, Western Blots of C57/Bl6 dermal fibroblasts pretreated with either DMSO or 500 nM cyclopamine and subsequently stimulated with vehicle or FGF-9 for 24 hr. 15D. Photomicrographs of FGF-2 and FGF-9 containing matrigel plugs with either DMSO or cyclopamine double immunolabeled for CD31 (brown) and sm α-actin (red). E Quantitation of SM α-actin coverage of CD31-positive vessels representative of 6 mice bearing FGF-2 or FGF-2+FGF-9 with either vehicle or 500 nM cyclopamine (79±4 vs 38±4.8, p<0.05).

[1] = system: CD31-positive endothelial cell-lined microvessels; test: Subcutaneous matrigel plug angiogenesis, CD31 immunostaining; format: in vivo, C57/Bl6 mice
Experimental: Matrigel plugs were mixed with either 500 ng/mL FGF-9, 500 ng/mL FGF-2 or 500 ng/mL FGF-2 and 200 ng/mL FGF-9 and subcutaneously injected into 3 month old C57/Bl6 mice. Mice were sacrificed and matrigel plugs were harvested 8 days after implantation and immunostained for CD31 (brown), to identify endothelial cell-lined microvessels.
CD31-positive microvessels immunostained in FIGS. 5B and 5C are quantified.

[2] = system: SM α-actin expressing mural cells at nascent microvessels; test: Matrigel plug, CD31 / SM α-actin immunostaining of 8 μm sections; format: in vivo, C57/Bl6 mice; conditions: 8 days after implantation
Text: Photomicrographs of 8 μm-thick sections of Matrigel plugs harvested 8 days after implantation into C57/Bl6 mice and immunostained for CD31 (brown) and smooth muscle α-actin (red) and quantification of the percentage of microvessels supported by smooth muscle (SM) α-actin positive cells.

[3] = system: SM α-actin positive cells on CD31 nascent blood vessels; test: Matrigel plug, SM α-actin coverage of CD31-positive vessels in 200 μm sections; format: in vivo, mice; conditions: 200 μm thick sections, 8 days after implantation
Text: Photomicrographs of Matrigel plugs harvested 8 days after implantation, cut into 200 μm thick-sections and immunostained for CD31 (left panel) and SM α-actin (central panel) and quantitation of SM α-actin coverage of CD31-positive vessels.

[4] = system: microvessels in matrigel plug; test: Intravital vasoreactivity of matrigel plug microvessels; format: in vivo, mice; conditions: 14 days after matrigel injection
Experimental: 14 days after matrigel injection mice were anesthetized, the skin overlying a matrigel was surgically removed and a catheter to deliver drugs was sutured in the region of the plug. FITC-labeled dextran was injected via tail vein and the diameter of vessels in the matrigel plug was visualized using an inverted fluorescent microscope. Doses of vasoconstrictors indicated in FIG. 9 were applied and images of vessels were acquired over 5 minutes.
In separate experiments, doses of the vasoconstrictor PE followed by the vasodilator were applied to the blood vessels in matrigel plugs.

| Compound | SM α-actin coverage of CD31-positive vessels (Sonic Hedgehog signaling) | area of CD31-positive microvessels ([1]; matrigel plugs, 8 days after implantation) | angiogenesis, CD31 immunoreactivity inside the matrigel ([1]; plugs with 500 ng/mL FGF-9, 500 ng/mL FGF-2 or 500 ng/mL FGF-2 and 200 ng/mL FGF-9, harvested 8 days after implantation) | percentage of microvessels supported by smooth muscle (SM) α-actin positive cells [2] [%] | SM α-actin positive cell coverage of CD31 nascent blood vessels [3] [%] | constriction of microvessels in response to phenylephrine (PE) and KCl [4] |
| --- | --- | --- | --- | --- | --- | --- |
| CC1=C2C[C@H]3[C@@H](CC=C4C[C@@H](O)CC[C@@]43C)[C@@H]2CC[C@]12O[C@@H]1C[C@H](C)CN[C@H]1[C@H]2C [cyclopamine] | 38±4.8 |  |  |  |  |  |
| FGF-2: fibroblast growth factor 2, angiogenic polypeptide used as comparator and co-factor |  | equivalent levels of angiogenesis | induce angiogenesis | 37±5.4 | 7.2±1.8 | mild if any response |
